Series [1] addresses T1, Myeloperoxidase (MPO) (Homo sapiens, UniProt P05164).
T1 sequence (P05164 49-745): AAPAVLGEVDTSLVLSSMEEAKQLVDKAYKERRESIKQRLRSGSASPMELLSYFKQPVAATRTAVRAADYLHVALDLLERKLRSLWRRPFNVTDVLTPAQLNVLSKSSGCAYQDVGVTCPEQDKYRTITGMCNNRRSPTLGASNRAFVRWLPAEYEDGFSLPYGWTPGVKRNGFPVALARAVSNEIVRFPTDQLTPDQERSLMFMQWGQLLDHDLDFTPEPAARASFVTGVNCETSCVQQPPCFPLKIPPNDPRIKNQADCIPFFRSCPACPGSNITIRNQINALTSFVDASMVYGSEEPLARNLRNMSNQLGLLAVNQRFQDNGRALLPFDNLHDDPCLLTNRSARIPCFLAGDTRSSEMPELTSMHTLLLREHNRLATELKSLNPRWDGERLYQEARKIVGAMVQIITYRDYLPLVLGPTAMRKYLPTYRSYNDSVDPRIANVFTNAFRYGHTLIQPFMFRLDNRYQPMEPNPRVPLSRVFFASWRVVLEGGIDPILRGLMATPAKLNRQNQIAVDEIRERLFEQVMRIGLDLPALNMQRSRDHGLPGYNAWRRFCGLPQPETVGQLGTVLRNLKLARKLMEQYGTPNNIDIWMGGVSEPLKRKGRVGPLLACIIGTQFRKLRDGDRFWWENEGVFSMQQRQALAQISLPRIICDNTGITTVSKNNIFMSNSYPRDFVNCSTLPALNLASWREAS
Kind of series: Myeloperoxidase Inhibitor Screening Assay (chlorination, hypochlorous acid production). In kind it is biochemical. The settings on record: MPO inhibition; parenthetic values are 95% confidence interval; read-out: Observed IC50 (converted). Here is the method: Formulations 1 and 2, as described in Table 2 above, were tested for their synergistic activity. Additional samples of F1 and F2 were prepared at an initial concentration of 100 mg/mL in an acetone:water (1:1) solution, sonicated in an ice bath for 60 min with vortexing every 10 min, and centrifuged at 3000 rpm at ambient temperature for 5 min. The supernatant liquid was transferred to fresh tubes and centrifuged again at 13,300 rpm at ambient temperature for 10 min. This final supernatant fraction was transferred to fresh tubes and stored at −80° C. until assayed.
The acetone used in this example was obtained through Fisher Chemical Co (Pittsburgh, Pa.) and was the highest purity available. […]
The chlorination assay utilizes the non-fluorescent 2-[6-(4-aminophenoxy)-3-oxo-3H-xanthen-9-yl]-benzoic acid (APF), which is selectively cleaved by hypochlorite to yield the highly fluorescent compound fluorescein. Fluorescein fluorescence was analyzed with an excitation wavelength of 480-495 nm and an emission wavelength of 515-525 nm using a Cytation5 microplate fluorescence reader (Bio Tek Instruments, Winooski, Vt.).
The median inhibitory concentration (IC50) for the inhibition of MPO activity was calculated using CalcuSyn (BIOSOFT, Ferguson, Mo.). […]
Synergy of test components was then quantified using the combination index (CI) parameter. […]

In series [2] the test system is NO biomarker NO2 in saliva. Kind of series: Salivary NO biomarker (NO2) test strips after dosing of the formulations. In kind it is in vivo, human. The settings on record: pharmacodynamic studies in this laboratory. As for the experimental part:
Over three days, subjects, with normal plasma concentrations of ADMA, were instructed to consume the 10 g of either F1 or F2 with 500 mL of water subsequent to developing the first, pre-dose NO strip. At post-dosing times 30, 60 and 90 minutes, NO strips were again developed for all subjects. One subject was given a 2× dose (20 g) of both formulations over the experimental period. The salivary NO strips, which detect salivary NO2, were nitric Oxide Test Strips (Berkeley Test, Berkeley, Calif.). Color development of NO strips was quantitated using densitometry. Means and 95% confidence intervals were computed using Excel [Microsoft, Redman, Wash.].
The assay of nitrite in saliva and nitrate in Test Formulation 3 (F3) was conducted as described in Example 1. Color development of NO strips was quantitated as described in Example 1. Means and 95% confidence intervals were computed as described in Example 1.
During the morning period, subjects (n=5), with normal plasma concentrations of ADMA, were instructed to consume 5 mL of the F3 with 500 mL of water subsequent to developing the first, pre-dose NO strip. At post-dosing times 30, 60 and 90 minutes, NO strips were again developed for all subjects.

For series [3] the following is noted: cited from earlier work.

The values that follow come from patent US11241406B2, “Compositions and methods for acutley raising nitric oxide levels” (Nature's Sunshine Products, Inc., priority 2015, dated 2022).

Consider `N=C(N)NCCC[C@H](N)C(=O)O` [L-Arginine], for which the concentration for half-maximal inhibition (IC50) in series [1] is 46.4 µM.
As for `NC(=O)NCCC[C@H](N)C(=O)O` [L-Citrulline], in series [1], the IC50 is 103 µM.
As to `O=[N+]([O-])O` [NO3], the “NO3 content that does not produce a detectable increase in NO strip color development” value in series [2] was “below 12.5 mg NO3/dose”. Besides, the bioavailability in series [3] (dietary NO3) is on record as 100%. In series [3] (orally consumed NO3), the half-life in plasma entry is listed as “about 5 hours” and the “time to peak plasma concentration” value is “about 1 hour”.

In general, IC50 refers to the concentration that gives 50% inhibition. A word on the bioavailability: it is the share of a dose that reaches the circulation, judged against a reference dose that is usually intravenous.
